Measurements published in paper PMC4729137, “Functional analysis of androgen receptor mutations that confer anti-androgen resistance identified in circulating cell-free DNA from prostate cancer patients” (Genome Biology, 2016).
Changes are numbered by the printed parent chain.

How the values were obtained:
Experiment in all cases: cell-based
[1] = biological target: T1, WT-AR (Homo sapiens, UniProt P10275)
T1 sequence (P10275 1-920): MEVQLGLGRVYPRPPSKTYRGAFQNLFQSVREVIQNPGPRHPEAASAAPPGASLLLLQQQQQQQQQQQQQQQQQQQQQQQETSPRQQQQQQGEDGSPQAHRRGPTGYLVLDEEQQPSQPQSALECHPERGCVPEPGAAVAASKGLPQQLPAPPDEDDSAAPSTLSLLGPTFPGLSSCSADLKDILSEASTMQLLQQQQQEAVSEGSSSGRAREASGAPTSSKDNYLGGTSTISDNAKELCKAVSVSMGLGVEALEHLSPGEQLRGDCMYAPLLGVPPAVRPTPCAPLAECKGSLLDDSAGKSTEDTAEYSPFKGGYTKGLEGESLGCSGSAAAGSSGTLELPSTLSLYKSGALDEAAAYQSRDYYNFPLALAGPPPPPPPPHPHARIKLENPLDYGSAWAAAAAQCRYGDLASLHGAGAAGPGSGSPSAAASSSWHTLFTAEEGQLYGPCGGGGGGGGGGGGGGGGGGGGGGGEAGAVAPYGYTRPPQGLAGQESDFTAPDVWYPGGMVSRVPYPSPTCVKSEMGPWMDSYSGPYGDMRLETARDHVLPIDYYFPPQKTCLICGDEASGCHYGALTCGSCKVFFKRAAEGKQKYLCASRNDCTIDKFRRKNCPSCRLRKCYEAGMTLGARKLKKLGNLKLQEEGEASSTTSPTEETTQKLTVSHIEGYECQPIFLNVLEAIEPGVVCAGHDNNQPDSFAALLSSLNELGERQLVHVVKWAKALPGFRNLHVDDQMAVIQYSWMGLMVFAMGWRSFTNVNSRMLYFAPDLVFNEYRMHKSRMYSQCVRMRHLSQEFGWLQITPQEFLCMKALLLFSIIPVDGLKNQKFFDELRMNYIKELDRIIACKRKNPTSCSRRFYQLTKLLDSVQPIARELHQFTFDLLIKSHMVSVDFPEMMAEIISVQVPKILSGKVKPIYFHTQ

[2] = biological target: T2, H875Y/T878A-AR (Homo sapiens, UniProt P10275, H875Y/T878A)
T2 sequence (P10275 1-920 H875Y/T878A): T1 sequence (P10275 1-920) with H875Y, T878A

[3] = biological target: T3, H875Y-AR (Homo sapiens, UniProt P10275, H875Y)
T3 sequence (P10275 1-920 H875Y): T1 sequence (P10275 1-920) with H875Y

For `C[C@]12CCC(=O)C=C1CC[C@@H]1[C@@H]2[C@@H](O)C[C@@]2(C)[C@H]1CC[C@]2(O)C(=O)CO` [hydrocortisone], the EC50 [1] was > 500 nM, the EC50 [2] was 105 nM and the EC50 [3] was > 500 nM.
